The values that follow come from patent US20230148214A1, “INDAZOLES AND AZAINDAZOLES AS LRRK2 INHIBITORS” (ESCAPE Bio, Inc., priority 2020, published 2023).

Experiment [1] deals with T1, LRRK2 WT (Homo sapiens, UniProt Q5S007).
T1 construct: purchased Life Technologies PR8604B
Kind of experiment: LRRK2 Kinase Activity Assay (LanthaScreen TR-FRET), wild type. The experiment is classed as biochemical. Particulars: recombinant wild type LRRK2, 25 μM ATP, 400 nM LRRKtide, 60 min. The essentials: (§1)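 Recombinant wild-type or G2019S LRRK2 incubated with fluorescein-labeled LRRKtide (ERM-based) peptide, ATP and serially diluted compound for 60 min at room temperature.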
For orientation: TR-FRET usually uses a lanthanide donor and a delayed reading to cut background.

The target of experiment [2] is T2, LRRK2 G2019S (Homo sapiens, UniProt Q5S007, G2019S).
T2 construct: purchased Life Technologies PV4881
The experiment in a line: LRRK2 Kinase Activity Assay (LanthaScreen TR-FRET), G2019S. The experiment is classed as biochemical. Particulars: recombinant G2019S-LRRK2, 25 μM ATP, 400 nM LRRKtide, 60 min; class symbols. In outline: as §1

Broadly, the IC50 is the midpoint of a concentration-inhibition curve.

The structures appear in SMILES notation.

T1 sequence (Q5S007 whole entry): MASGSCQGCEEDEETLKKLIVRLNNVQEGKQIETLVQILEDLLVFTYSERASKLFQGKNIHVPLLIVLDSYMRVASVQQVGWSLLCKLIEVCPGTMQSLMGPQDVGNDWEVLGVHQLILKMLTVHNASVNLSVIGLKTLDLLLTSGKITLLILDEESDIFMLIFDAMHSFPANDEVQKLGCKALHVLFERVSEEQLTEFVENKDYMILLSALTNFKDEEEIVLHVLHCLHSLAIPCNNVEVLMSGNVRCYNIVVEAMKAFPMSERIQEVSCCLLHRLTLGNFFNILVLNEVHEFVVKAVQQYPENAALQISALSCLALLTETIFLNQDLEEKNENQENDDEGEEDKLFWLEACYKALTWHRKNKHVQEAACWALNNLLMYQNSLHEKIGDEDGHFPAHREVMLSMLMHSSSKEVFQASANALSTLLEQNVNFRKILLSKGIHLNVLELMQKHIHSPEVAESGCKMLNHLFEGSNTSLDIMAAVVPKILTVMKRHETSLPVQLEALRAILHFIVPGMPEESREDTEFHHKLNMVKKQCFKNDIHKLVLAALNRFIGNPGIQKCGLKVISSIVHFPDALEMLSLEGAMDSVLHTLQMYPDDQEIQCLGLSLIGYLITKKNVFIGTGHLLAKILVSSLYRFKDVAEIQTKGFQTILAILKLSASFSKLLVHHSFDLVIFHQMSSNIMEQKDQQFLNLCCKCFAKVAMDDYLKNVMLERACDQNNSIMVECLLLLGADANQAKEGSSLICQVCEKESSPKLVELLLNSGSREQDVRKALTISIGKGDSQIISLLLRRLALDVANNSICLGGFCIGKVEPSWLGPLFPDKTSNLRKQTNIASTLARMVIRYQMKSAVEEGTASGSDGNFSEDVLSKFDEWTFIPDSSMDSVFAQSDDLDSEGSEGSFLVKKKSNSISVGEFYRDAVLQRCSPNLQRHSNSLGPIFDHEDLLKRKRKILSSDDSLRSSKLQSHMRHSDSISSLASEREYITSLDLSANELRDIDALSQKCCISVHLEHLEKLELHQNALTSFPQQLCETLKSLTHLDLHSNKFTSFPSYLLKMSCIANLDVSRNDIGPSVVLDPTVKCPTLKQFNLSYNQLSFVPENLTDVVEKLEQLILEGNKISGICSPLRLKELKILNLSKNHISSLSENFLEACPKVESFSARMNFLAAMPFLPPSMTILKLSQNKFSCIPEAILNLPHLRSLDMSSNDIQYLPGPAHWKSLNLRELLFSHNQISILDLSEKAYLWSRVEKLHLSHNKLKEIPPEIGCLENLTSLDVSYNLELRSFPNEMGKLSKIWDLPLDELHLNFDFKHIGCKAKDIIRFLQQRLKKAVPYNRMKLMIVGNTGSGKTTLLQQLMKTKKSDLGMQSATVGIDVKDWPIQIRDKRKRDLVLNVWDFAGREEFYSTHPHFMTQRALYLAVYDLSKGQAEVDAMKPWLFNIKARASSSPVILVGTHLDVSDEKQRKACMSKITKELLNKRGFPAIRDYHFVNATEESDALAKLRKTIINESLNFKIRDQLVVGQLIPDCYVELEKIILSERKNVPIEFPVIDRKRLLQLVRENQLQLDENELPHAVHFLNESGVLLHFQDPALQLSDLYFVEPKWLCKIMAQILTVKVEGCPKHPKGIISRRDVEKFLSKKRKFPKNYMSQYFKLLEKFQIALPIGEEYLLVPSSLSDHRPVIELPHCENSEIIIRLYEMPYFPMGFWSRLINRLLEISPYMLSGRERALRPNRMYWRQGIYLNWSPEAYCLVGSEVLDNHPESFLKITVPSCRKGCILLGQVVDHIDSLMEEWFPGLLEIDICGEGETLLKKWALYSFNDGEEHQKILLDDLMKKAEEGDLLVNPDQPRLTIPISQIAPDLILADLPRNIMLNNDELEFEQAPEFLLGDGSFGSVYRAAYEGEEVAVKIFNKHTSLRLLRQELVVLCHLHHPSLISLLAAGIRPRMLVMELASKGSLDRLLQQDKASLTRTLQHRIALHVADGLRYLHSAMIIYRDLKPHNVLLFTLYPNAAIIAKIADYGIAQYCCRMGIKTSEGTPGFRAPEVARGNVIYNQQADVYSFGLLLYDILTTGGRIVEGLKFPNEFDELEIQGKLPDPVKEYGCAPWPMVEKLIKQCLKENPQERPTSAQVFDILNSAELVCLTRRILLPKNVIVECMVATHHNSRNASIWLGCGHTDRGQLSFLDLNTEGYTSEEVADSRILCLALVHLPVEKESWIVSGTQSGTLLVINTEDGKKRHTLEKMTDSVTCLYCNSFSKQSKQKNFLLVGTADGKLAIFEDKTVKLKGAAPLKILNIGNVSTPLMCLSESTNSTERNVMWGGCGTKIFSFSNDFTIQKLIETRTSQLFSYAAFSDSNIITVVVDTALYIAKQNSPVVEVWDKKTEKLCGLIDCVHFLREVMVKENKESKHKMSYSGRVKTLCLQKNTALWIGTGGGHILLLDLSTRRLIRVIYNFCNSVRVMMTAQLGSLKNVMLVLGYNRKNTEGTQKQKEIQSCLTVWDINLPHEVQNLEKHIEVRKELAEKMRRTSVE
T2 sequence (Q5S007 whole entry G2019S): as the sequence (Q5S007 whole entry) above, with G2019S counted along it

For `Cn1cc(-c2n[nH]c3ccc(N[C@H]4CCCc5cc(C#N)ccc54)cc23)ccc1=O` (single isomer, unassigned) [Example 62, 5-((3-(1-Methyl-6-oxo-1,6-dihydropyridin-3-yl)-1H-indazol-5-yl)amino)-5,6,7,8-tetrahydronaphthalene-2-carbonitrile], the IC50 in experiment [1] (class symbols) and in experiment [2] was less than 100 nM in each case.

As to `N#Cc1ccc(-c2n[nH]c3ccc(N[C@H]4CCCc5cc(C#N)ccc54)cc23)cc1` (single isomer, unassigned) [Example 63, 5-((3-(4-Cyanophenyl)-1H-indazol-5-yl)amino)-5,6,7,8-tetrahydronaphthalene-2-carbonitrile], the values for the IC50 in experiment [1] (class symbols) and in experiment [2] were 100 to 1000 nM and less than 100 nM, respectively.

Regarding `N#Cc1ccc2c(c1)CCC[C@@H]2Nc1ccc2[nH]nc(C3=CCCC3)c2c1` (single isomer, unassigned) [Example 65, 5-((3-(Cyclopent-1-en-1-yl)-1H-indazol-5-yl)amino)-5,6,7,8-tetrahydronaphthalene-2-carbonitrile], the figures for the IC50 in experiment [1] (class symbols) and in experiment [2] were 1000 to 10000 nM and 100 to 1000 nM, respectively.

Turning to `N#Cc1ccc2c(c1)CCC[C@@H]2Nc1ccc2[nH]nc(-c3ccc(F)c(C(=O)O)c3)c2c1` (single isomer, unassigned) [Example 66, 5-(5-((6-Cyano-1,2,3,4-tetrahydronaphthalen-1-yl)amino)-1H-indazol-3-yl)-2-fluorobenzoic acid], the IC50 in experiment [1] (class symbols) was 100 to 1000 nM; in experiment [2] it was less than 100 nM.

Regarding `N#Cc1ccc2c(c1)CCC[C@@H]2Nc1ccc2[nH]nc(-c3ccc4scnc4c3)c2c1` (single isomer, unassigned) [Example 67, 5-((3-(Benzo[d]thiazol-5-yl)-1H-indazol-5-yl)amino)-5,6,7,8-tetrahydronaphthalene-2-carbonitrile], the IC50 in experiment [1] (class symbols) and in experiment [2] was less than 100 nM in each case.

Take `N#Cc1ccc2c(c1)CCC[C@@H]2Nc1ccc2[nH]nc(-c3cccc(C(F)F)c3)c2c1` (single isomer, unassigned) [Example 68, 5-((3-(3-(Difluoromethyl)phenyl)-1H-indazol-5-yl)amino)-5,6,7,8-tetrahydronaphthalene-2-carbonitrile]: the IC50 in experiment [1] (class symbols) and in experiment [2] was less than 100 nM throughout.

With `CONC(=O)c1cccc(-c2n[nH]c3ccc(N[C@H]4CCCc5cc(C#N)ccc54)cc23)c1` (single isomer, unassigned) [Example 69, 3-(5-((6-Cyano-1,2,3,4-tetrahydronaphthalen-1-yl)amino)-1H-indazol-3-yl)-N-methoxybenzamide], the IC50 in experiment [1] (class symbols) and in experiment [2] was less than 100 nM throughout.

Take `N#Cc1ccc2c(c1)CCC[C@@H]2Nc1ccc2[nH]nc(-c3ccc([N+](=O)[O-])cc3)c2c1` (single isomer, unassigned) [Example 70, 5-((3-(4-Nitrophenyl)-1H-indazol-5-yl)amino)-5,6,7,8-tetrahydronaphthalene-2-carbonitrile]: the values for the IC50 in experiment [1] (class symbols) and in experiment [2] were 100 to 1000 nM and less than 100 nM, respectively.

Consider `COc1ccc(-c2n[nH]c3ccc(N[C@H]4CCCc5cc(C#N)ccc54)cc23)cc1OC` (single isomer, unassigned) [Example 71, 5-((3-(3,4-Dimethoxyphenyl)-1H-indazol-5-yl)amino)-5,6,7,8-tetrahydronaphthalene-2-carbonitrile], for which the IC50 in experiment [1] (class symbols) and in experiment [2] was less than 100 nM throughout.

With `N#Cc1ccc2c(c1)CCC[C@@H]2Nc1ccc2[nH]nc(-c3ccc(N4CCOCC4)cc3)c2c1` (single isomer, unassigned) [Example 72, 5-((3-(4-Morpholinophenyl)-1H-indazol-5-yl)amino)-5,6,7,8-tetrahydronaphthalene-2-carbonitrile], the IC50 in experiment [1] (class symbols) and in experiment [2] was less than 100 nM throughout.

`COc1ccc(-c2n[nH]c3ccc(N[C@H]4CCCc5cc(C#N)ccc54)cc23)cc1C` (single isomer, unassigned) [Example 73, 5-((3-(4-Methoxy-3-methylphenyl)-1H-indazol-5-yl)amino)-5,6,7,8-tetrahydronaphthalene-2-carbonitrile]: the values for the IC50 in experiment [1] (class symbols) and in experiment [2] were 100 to 1000 nM and less than 100 nM, respectively.

With `CS(=O)(=O)c1ccc(-c2n[nH]c3ccc(N[C@H]4CCCc5cc(C#N)ccc54)cc23)cc1` (single isomer, unassigned) [Example 74, 5-((3-(4-(Methylsulfonyl)phenyl)-1H-indazol-5-yl)amino)-5,6,7,8-tetrahydronaphthalene-2-carbonitrile], the 50% inhibitory concentration (IC50) in experiment [1] (class symbols) and in experiment [2] was less than 100 nM each time.

As for `C/C=C/c1n[nH]c2ccc(N[C@H]3CCCc4cc(C#N)ccc43)cc12` (single isomer, unassigned) [Example 75, (E)-5-((3-(Prop-1-en-1-yl)-1H-indazol-5-yl)amino)-5,6,7,8-tetrahydronaphthalene-2-carbonitrile], the IC50 is 100 to 1000 nM in experiment [1] (class symbols) and less than 100 nM in experiment [2].

Regarding `N#Cc1ccc2c(c1)CCC[C@@H]2Nc1ccc2[nH]nc(-c3cncc(C4CC4)c3)c2c1` (single isomer, unassigned) [Example 76, 5-((3-(5-Cyclopropylpyridin-3-yl)-1H-indazol-5-yl)amino)-5,6,7,8-tetrahydronaphthalene-2-carbonitrile], the IC50 in experiment [1] (class symbols) and in experiment [2] was less than 100 nM each time.

Consider `N#Cc1ccc2c(c1)CCC[C@@H]2Nc1ccc2[nH]nc(-c3ccc4c(c3)OCO4)c2c1` (single isomer, unassigned) [Example 77, 5-((3-(Benzo[d][1,3]dioxol-5-yl)-1H-indazol-5-yl)amino)-5,6,7,8-tetrahydronaphthalene-2-carbonitrile], for which the IC50 in experiment [1] (class symbols) and in experiment [2] was less than 100 nM in each case.

Turning to `N#Cc1ccc2c(c1)CCC[C@@H]2Nc1ccc2[nH]nc(-c3ccc4[nH]ccc4c3)c2c1` (single isomer, unassigned) [Example 78, 5-((3-(1H-Indol-5-yl)-1H-indazol-5-yl)amino)-5,6,7,8-tetrahydronaphthalene-2-carbonitrile], the IC50 in experiment [1] (class symbols) is 100 to 1000 nM; in experiment [2], less than 100 nM.

In the case of `N#Cc1ccc2c(c1)CCC[C@@H]2Nc1ccc2[nH]nc(-c3ccc[nH]3)c2c1` (single isomer, unassigned) [Example 79, 5-((3-(1H-Pyrrol-2-yl)-1H-indazol-5-yl)amino)-5,6,7,8-tetrahydronaphthalene-2-carbonitrile], the values for the IC50 in experiment [1] (class symbols) and in experiment [2] were 100 to 1000 nM and less than 100 nM, respectively.

Consider `CC(C)(C)OC(=O)n1cccc1-c1n[nH]c2ccc(N[C@H]3CCCc4cc(C#N)ccc43)cc12` (single isomer, unassigned) [Example 80, tert-Butyl 2-(5-((6-cyano-1,2,3,4-tetrahydronaphthalen-1-yl)amino)-1H-indazol-3-yl)-1H-pyrrole-1-carboxylate], for which the results for the IC50 in experiment [1] (numeric bound) and in experiment [2] were more than 10000 nM and 100 to 1000 nM, respectively.

`N#Cc1ccc2c(c1)CCC[C@@H]2Nc1ccc2[nH]nc(-c3ccc(C(=O)N4CCOCC4)cc3)c2c1` (single isomer, unassigned) [Example 81, 5-((3-(4-(Morpholine-4-carbonyl)phenyl)-1H-indazol-5-yl)amino)-5,6,7,8-tetrahydronaphthalene-2-carbonitrile]: the IC50 in experiment [1] (class symbols) and in experiment [2] was less than 100 nM each time.

Consider `N#Cc1ccc2c(c1)CCC[C@@H]2Nc1ccc2[nH]nc(-c3ccc4c(c3)NC(=O)C4)c2c1` (single isomer, unassigned) [Example 82, 5-((3-(2-Oxoindolin-6-yl)-1H-indazol-5-yl)amino)-5,6,7,8-tetrahydronaphthalene-2-carbonitrile], for which the IC50 in experiment [1] (class symbols) and in experiment [2] was less than 100 nM each time.

On to `Cn1cc2cc(-c3n[nH]c4ccc(N[C@H]5CCCc6cc(C#N)ccc65)cc34)ccc2n1` (single isomer, unassigned) [Example 83, 5-((2′-Methyl-1H,2′H-[3,5′-biindazol]-5-yl)amino)-5,6,7,8-tetrahydronaphthalene-2-carbonitrile], for which the IC50 in experiment [1] (class symbols) and in experiment [2] was less than 100 nM each time.

With `N#Cc1ccc2c(c1)CCC[C@@H]2Nc1ccc2[nH]nc(-c3ccc4c(c3)OCCO4)c2c1` (single isomer, unassigned) [Example 84, 5-((3-(2,3-Dihydrobenzo[b][1,4]dioxin-6-yl)-1H-indazol-5-yl)amino)-5,6,7,8-tetrahydronaphthalene-2-carbonitrile], the IC50 in experiment [1] (class symbols) is 100 to 1000 nM; in experiment [2] it was less than 100 nM.

Regarding `CC(=O)Nc1cccc(-c2n[nH]c3ccc(N[C@H]4CCCc5cc(C#N)ccc54)cc23)c1` (single isomer, unassigned) [Example 85, N-(3-(5-((6-Cyano-1,2,3,4-tetrahydronaphthalen-1-yl)amino)-1H-indazol-3-yl)phenyl)acetamide], the IC50 in experiment [1] (class symbols) and in experiment [2] was less than 100 nM in each case.

Take `CN(C)C(=O)c1cccc(-c2n[nH]c3ccc(N[C@H]4CCCc5cc(C#N)ccc54)cc23)c1` (single isomer, unassigned) [Example 86, 3-(5-((6-Cyano-1,2,3,4-tetrahydronaphthalen-1-yl)amino)-1H-indazol-3-yl)-N,N-dimethylbenzamide]: the half-inhibitory concentration (IC50) in experiment [1] (class symbols) and in experiment [2] was less than 100 nM each time.

Regarding `N#Cc1ccc2c(c1)CCC[C@@H]2Nc1ccc2[nH]nc(C3=CCC4(CC3)OCCO4)c2c1` (single isomer, unassigned) [Example 87, 5-((3-(1,4-Dioxaspiro[4.5]dec-7-en-8-yl)-1H-indazol-5-yl)amino)-5,6,7,8-tetrahydronaphthalene-2-carbonitrile], the IC50 in experiment [1] (class symbols) lay in the range of 1000 to 10000 nM; in experiment [2], 100 to 1000 nM.

`N#Cc1ccc2c(c1)CCC[C@@H]2Nc1ccc2[nH]nc(C3=CCOCC3)c2c1` (single isomer, unassigned) [Example 88, 5-((3-(3,6-Dihydro-2H-pyran-4-yl)-1H-indazol-5-yl)amino)-5,6,7,8-tetrahydronaphthalene-2-carbonitrile]: the IC50 is 100 to 1000 nM in experiment [1] (class symbols) and less than 100 nM in experiment [2].
